Assay results from US6593342B1, “Pharmaceutical compositions comprising 2-quinolones” (Laboratoire L. Lafon, priority 1998, dated 2003).

Assays:
MCF7 = test: Clonogenic test (soft agar colony growth), MCF7; assay type: cell-based, human; conditions: 21 days, control = 100%, mean ± SEM
From the text: (§1) 1—Interaction (Stimulation or Inhibition of Proliferation) With the Generation of Clonogenic Cells (Clonogenic Test)
(§2) The test used is that described by Hamburger et al. (Science, 1977; 197, 461-463) and Salmon et al. (New England J. Med., 298, 1321-1327). A cell is considered clonogenic if it has the capacity to proliferate and to give rise to a cell colony. “Human tumor stem cells” are the cells which are the source of the neoplastic cells which constitute a given tumor. These tumor stem cells are responsible for the relapse processes which may be observed after surgical resection of primary tumors and are also responsible for the formation of metastases. In a tumor or a tumor cell line, these clonogenic stem cells differ from the other cells of the tumor or from the neoplastic cell line under consideration in that they conserve their capacity to proliferate in the absence of any solid support.
(§3) In this test, the tumor cells are cultured on a semi-solid support consisting of agar. […] In a tumor cell population, cultured on such a support, it is these clonogenic cells (associated with an unlimited number of cell divisions and whose proliferation is referred to by M. I. Dawson as “anchorage-independent [clonal] growth”) which are capable of growing. The percentage of these clonogenic cells in a tumor or a cell line ranges between 0.1% and 0.001%.
(§4) The influence of the compounds of formulae (I) and (Ia) on the growth of the cell colonies obtained by culturing, for example, the mammalian tumor lines MCF7 and MXT and the colorectal line HT-29 on the semi-liquid culture medium known as “soft agar” was measured. On such a medium, only the clonogenic cells referred to by M. I. Dawson as “anchorage-independent (clonal) cells” survive and grow. The growth of these cells in such a “non-adherent” mode bears witness to their degree of tumorigenicity. The inhibition of the growth of the size of a tumor in which a larger number of clonogenic cells has developed then becomes the evidence of reinforced cytotoxic activity.
(§5) Conversely, this test can also reveal that a compound is capable of inhibiting the generation/proliferation of clonogenic cells, thus making the tumor less able to grow and thus reducing the population of tumor cells.
(§6) The tumor cell lines studied are maintained in culture in 25 cm^2 falcon dishes. They are then trypsinized and the cells are fully dissociated from each other. The percentage of live cells is determined after staining with trypan blue. A cell suspension at a concentration of from 5·10^4 to 15·10^4 cells/ml (depending on the cell type under consideration) is prepared in a 0.3% agar solution. Next, 200 μl of this suspension are inoculated in Petri dishes 35 mm in diameter, in which are placed 3 ml of a base layer consisting of a 0.5% agar solution. The 200 μl of cell suspension are in turn covered with 1.8 ml of an upper layer consisting of a 0.3% agar solution. The dishes are then placed in an incubator at 37° C., 5% CO2 and 70% humidity until the treatment. This treatment is carried out about 1 to 2 hours after the inoculation. The test compounds are prepared at a concentration 100 times greater than the desired concentration and 50 μl of these treating solutions are placed over the upper layer of agar in the corresponding dishes. In the present study, the final concentration of the test products is 10^−5, 10^−7 and 10^−9 M. The dishes are then kept in an incubator for 21 days. On the 21st day the dishes are treated by depositing on the upper layer 100 μl of a 1 mg/ml solution of MTT (3-(4,5-dimethylthiazol-2-yl)-2,5-diphenyltetrazolinium bromide prepared with RPMI 1640 medium) for 3 h at 37° C. After this period, the cell colonies are fixed by adding 2 ml of formalin per dish. After fixing for 24 hours, the formalin is evaporated off and the number of stained cell colonies, thus consisting of metabolically active cells, and whose surface area is greater than 100 μm^2, is determined using an inverted microscope. […]

MXT = test: Clonogenic test (soft agar colony growth), MXT; assay type: cell-based, mouse; conditions: 21 days, control = 100%, mean ± SEM
From the text: as §1, §2, §3, §4, §5, §6

[1] = Determination of the maximum tolerated dose (MTD); conditions: mouse, in vivo, ip; B6D2F1/Jico mice; single intraperitoneal administration, 2.5 to 160 mg/kg; survival over 14 days
Procedure: 3.—Determination of the Maximum Tolerated Dose (MTD):
The evaluation of the maximum tolerated dose was carried out on 4- to 6-week-old B6D2F1/Jico mice. The compounds were administered intraperitoneally at increasing doses graduating from 2.5 to 160 mg/kg. The value of the MTD (expressed in mg/kg) is determined from the observation of the survival rate of the animals over a 14-day period after a single administration of the product under consideration. The weight change of the animals is also monitored during this period. When the value of the MTD is greater than 160 mg/kg, the MTD value is likened to 160 mg/kg by default.
The results of the estimation of the maximum tolerated dose (MTD) are collated in the following table: […]

COc1ccc(-c2cc3c(OC)cc(OC)cc3n(CCN(C)C)c2=O)cc1 [CRL8316, 1-[2-(Dimethylamino)ethyl]-5,7-dimethoxy-3-(4-methoxyphenyl)-1,2-dihydro-2-quinolinone]
average number of clones of clonogenic cells, percentage relative to control (MCF7; 10^−5 M): 23.2 ± 1.8%
average number of clones of clonogenic cells, percentage relative to control (MCF7; 10^−7 M): 84 ± 5%
average number of clones of clonogenic cells, percentage relative to control (MCF7; 10^−9 M): 83.4 ± 4.6%
average number of clones of clonogenic cells, percentage relative to control (MXT; 10^−5 M): 10.8 ± 0.5%
average number of clones of clonogenic cells, percentage relative to control (MXT; 10^−7 M): 89.1 ± 3.7%
average number of clones of clonogenic cells, percentage relative to control (MXT; 10^−9 M): 95.3 ± 3.8%
MTD at 14 day [1]: > 160 mg/kg

CCN(CC)C(=O)Cn1c(=O)c(-c2ccc(OC)cc2)cc2c(OC)cc(OC)cc21 [CRL8315, N,N-Diethyl-2-[5,7-dimethoxy-3-(4-methoxy-phenyl)-2-oxo-1,2-dihydro-1-quinolinyl]acetamide]
average number of clones of clonogenic cells, percentage relative to control (MCF7; 10^−5 M): 119.6 ± 5.6%
average number of clones of clonogenic cells, percentage relative to control (MCF7; 10^−7 M): 127 ± 8.8%
average number of clones of clonogenic cells, percentage relative to control (MCF7; 10^−9 M): 157.1 ± 12.2%
average number of clones of clonogenic cells, percentage relative to control (MXT; 10^−5 M): 76 ± 2.3%
average number of clones of clonogenic cells, percentage relative to control (MXT; 10^−7 M): 103.9 ± 4.3%
average number of clones of clonogenic cells, percentage relative to control (MXT; 10^−9 M): 102.4 ± 3.9%
MTD at 14 day [1]: > 160 mg/kg

CCN(CC)C(=O)CCn1c(=O)c(-c2ccc(OC)cc2)cc2c(OC)cc(OC)cc21 [CRL8283, N,N-Diethyl-3-[5,7-dimethoxy-3-(4-methoxy-phenyl)-2-oxo-1,2-dihydro-1-quinolinyl]propanamide]
average number of clones of clonogenic cells, percentage relative to control (MCF7; 10^−5 M): 56.5 ± 4.9%
average number of clones of clonogenic cells, percentage relative to control (MCF7; 10^−7 M): 106.2 ± 4.8%
average number of clones of clonogenic cells, percentage relative to control (MCF7; 10^−9 M): 97.4 ± 5.8%
average number of clones of clonogenic cells, percentage relative to control (MXT; 10^−5 M): 23.7 ± 1.4%
average number of clones of clonogenic cells, percentage relative to control (MXT; 10^−7 M): 81.2 ± 3%
average number of clones of clonogenic cells, percentage relative to control (MXT; 10^−9 M): 91.4 ± 4%
MTD at 14 day [1]: > 160 mg/kg

COc1ccc(-c2cc3c(OC)cc(OC)cc3[nH]c2=O)cc1 [CRL8246, 5,7-Dimethoxy-3-(4-methoxyphenyl)-1,2-dihydro-2-quinolinone]
average number of clones of clonogenic cells, percentage relative to control (MCF7; 10^−5 M): 126.8 ± 9.9%
average number of clones of clonogenic cells, percentage relative to control (MCF7; 10^−7 M): 145.7 ± 8.9%
average number of clones of clonogenic cells, percentage relative to control (MCF7; 10^−9 M): 139.1 ± 6.6%
average number of clones of clonogenic cells, percentage relative to control (MXT; 10^−5 M): 96.7 ± 7.2%
average number of clones of clonogenic cells, percentage relative to control (MXT; 10^−7 M): 97.7 ± 9.3%
average number of clones of clonogenic cells, percentage relative to control (MXT; 10^−9 M): 95.2 ± 6.8%
MTD at 14 day [1]: > 160 mg/kg

COc1ccc(-c2cc3c(OC)cc(OC)cc3n(CCC#N)c2=O)cc1 [CRL8247, 3-[5,7-Dimethoxy-3-(4-methoxyphenyl)-2-oxo-1,2-dihydro-1-quinolinyl]propanenitrile]
average number of clones of clonogenic cells, percentage relative to control (MCF7; 10^−5 M): 51.5 ± 2.8%
average number of clones of clonogenic cells, percentage relative to control (MCF7; 10^−7 M): 81.9 ± 1.2%
average number of clones of clonogenic cells, percentage relative to control (MCF7; 10^−9 M): 98.3 ± 4.2%
average number of clones of clonogenic cells, percentage relative to control (MXT; 10^−5 M): 65.7 ± 1.7%
average number of clones of clonogenic cells, percentage relative to control (MXT; 10^−7 M): 89.6 ± 4.9%
average number of clones of clonogenic cells, percentage relative to control (MXT; 10^−9 M): 98.4 ± 2.6%
MTD at 14 day [1]: > 160 mg/kg

COc1ccc(-c2cc3c(OC)cc(OC)cc3n(CCc3nnn[nH]3)c2=O)cc1 [CRL8256, 1-[2-(1H-1,2,3,4-Tetrazol-5-yl)ethyl]-5,7-dimethoxy-3-(4-methoxyphenyl)-1,2-dihydro-2-quinolinone]
average number of clones of clonogenic cells, percentage relative to control (MCF7; 10^−5 M): 51.6 ± 3.7%
average number of clones of clonogenic cells, percentage relative to control (MCF7; 10^−7 M): 83.8 ± 3.4%
average number of clones of clonogenic cells, percentage relative to control (MCF7; 10^−9 M): 97.9 ± 5.6%
average number of clones of clonogenic cells, percentage relative to control (MXT; 10^−5 M): 53 ± 1.9%
average number of clones of clonogenic cells, percentage relative to control (MXT; 10^−7 M): 103.8 ± 3.9%
average number of clones of clonogenic cells, percentage relative to control (MXT; 10^−9 M): 104.5 ± 4.7%
MTD at 14 day [1]: > 160 mg/kg
